System: MAGE-D4
Experiment: MAGE-D4 expression (qRT-PCR, Western blot) in U87
Assay type: cell-based, human
Conditions: U87, compared to the control (0.09% DMSO); 1 μM TSA 24 h
Protocol: The human glioma cell lines (U87-MG and U251) were obtained from the Cell Bank of Type Culture Collection of the Chinese Academy of Science (Shanghai, China). […] A3656), valproic acid (VPA, CAS No. 99-66-1), and trichostatin A (TSA, CAS No. 58880-19-6) were purchased from Sigma-Aldrich Corporation (St. Louis, MO, USA). DAC and TSA were dissolved in DMSO to a concentration of 10 mM. Aliquots were stored at -80°C and diluted with media before being used. Drug treatments were divided into seven groups: (1) DAC group: cells were cultured in medium on the presence of 1 μM DAC for 120 h; (2) VPA group: cells were grown in medium containing 1 mM VPA for 120 h; (3) TSA group: cells were cultured in medium supplemented with 1 μM TSA for 24 h; (4) D + V group: cells were cultured with 1 μM DAC and 1 mM VPA for 120 h; (5) D + T group: cells were cultured with 1 μM DAC for 120 h, followed by 1 μM TSA for 24 h; (6) Control group: cells were cultured with 0.09% DMSO, which is the highest concentration of DMSO used in this study in consideration of the potential toxicity of DMSO to living cells. […] Relative intensities of the bands were normalized with GAPDH and analyzed by ImageJ (NIH, Maryland, USA).

## CC(/C=C/C(=O)NO)=C\[C@@H](C)C(=O)c1ccc(N(C)C)cc1 [TSA, trichostatin A]
  MAGE-D4 mRNA and protein expression: higher
